{
  "source": "ChEMBL document CHEMBL1201862",
  "about": "“PubChem BioAssay data set” (2004)",
  "key": {"[1]": {"target": "T1, Heat shock factor protein 1 (Mus musculus, UniProt P38532)", "T1 sequence (P38532 whole entry)": "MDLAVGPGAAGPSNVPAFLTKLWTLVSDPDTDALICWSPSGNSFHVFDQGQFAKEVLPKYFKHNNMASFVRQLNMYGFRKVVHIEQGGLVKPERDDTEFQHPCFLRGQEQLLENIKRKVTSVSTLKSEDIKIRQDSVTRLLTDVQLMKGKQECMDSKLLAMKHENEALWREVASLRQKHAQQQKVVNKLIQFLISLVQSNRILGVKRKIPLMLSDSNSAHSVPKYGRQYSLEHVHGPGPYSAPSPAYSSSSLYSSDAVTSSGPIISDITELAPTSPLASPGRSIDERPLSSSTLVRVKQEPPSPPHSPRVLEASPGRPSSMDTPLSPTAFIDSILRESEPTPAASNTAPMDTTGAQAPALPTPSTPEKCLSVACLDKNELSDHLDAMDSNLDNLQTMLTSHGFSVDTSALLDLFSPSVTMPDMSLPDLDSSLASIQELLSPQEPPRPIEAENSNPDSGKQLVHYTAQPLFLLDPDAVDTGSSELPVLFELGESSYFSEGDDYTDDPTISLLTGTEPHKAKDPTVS", "assay": "enhancement of HSF1-driven luciferase signal – cell-based, NIH3T3, luminescence, dose retest, confirmation (AID 435004);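 also: stress induced by proteasome inhibitor MG132 added 30 min after compound; actives raise luminescence as potentiators of the MG132 stress response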", "format": "functional"}, "Genome polyprotein": {"target": "Genome polyprotein (dengue virus type 2, UniProt P29990)", "sequence (P29990 2492-3391 limits assumed)": "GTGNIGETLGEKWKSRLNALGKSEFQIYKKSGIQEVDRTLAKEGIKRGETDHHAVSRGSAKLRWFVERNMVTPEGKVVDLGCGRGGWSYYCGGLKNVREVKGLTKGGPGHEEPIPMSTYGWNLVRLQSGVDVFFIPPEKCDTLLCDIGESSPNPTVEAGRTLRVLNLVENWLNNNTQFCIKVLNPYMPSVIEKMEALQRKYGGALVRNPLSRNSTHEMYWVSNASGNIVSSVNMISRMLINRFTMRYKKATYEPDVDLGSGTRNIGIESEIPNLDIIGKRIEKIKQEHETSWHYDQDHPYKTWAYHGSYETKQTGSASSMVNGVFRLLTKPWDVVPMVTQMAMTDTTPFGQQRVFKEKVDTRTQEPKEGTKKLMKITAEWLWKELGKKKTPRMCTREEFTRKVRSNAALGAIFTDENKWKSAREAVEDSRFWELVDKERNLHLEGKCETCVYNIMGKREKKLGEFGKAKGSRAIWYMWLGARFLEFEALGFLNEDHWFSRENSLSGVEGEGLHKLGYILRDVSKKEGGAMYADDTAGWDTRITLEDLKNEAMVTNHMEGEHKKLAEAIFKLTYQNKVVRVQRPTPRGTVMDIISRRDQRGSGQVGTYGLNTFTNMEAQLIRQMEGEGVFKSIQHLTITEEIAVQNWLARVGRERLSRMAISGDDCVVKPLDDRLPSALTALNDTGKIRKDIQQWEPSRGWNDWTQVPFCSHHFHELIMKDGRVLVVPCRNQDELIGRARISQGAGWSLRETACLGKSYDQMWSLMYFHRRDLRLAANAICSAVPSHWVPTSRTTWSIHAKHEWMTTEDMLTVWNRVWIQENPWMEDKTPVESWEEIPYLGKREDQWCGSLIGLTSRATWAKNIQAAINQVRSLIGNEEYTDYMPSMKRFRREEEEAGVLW", "assay": "flavivirus cap methylation enzyme inhibition – biochemical, confirmation dose response, primary screen (AID 588689)", "format": "functional"}, "[2]": {"target": "T2, Long-chain-fatty-acid--AMP ligase FadD28 (Mycobacterium tuberculosis, UniProt P9WQ59)", "T2 sequence (P9WQ59 whole entry)": "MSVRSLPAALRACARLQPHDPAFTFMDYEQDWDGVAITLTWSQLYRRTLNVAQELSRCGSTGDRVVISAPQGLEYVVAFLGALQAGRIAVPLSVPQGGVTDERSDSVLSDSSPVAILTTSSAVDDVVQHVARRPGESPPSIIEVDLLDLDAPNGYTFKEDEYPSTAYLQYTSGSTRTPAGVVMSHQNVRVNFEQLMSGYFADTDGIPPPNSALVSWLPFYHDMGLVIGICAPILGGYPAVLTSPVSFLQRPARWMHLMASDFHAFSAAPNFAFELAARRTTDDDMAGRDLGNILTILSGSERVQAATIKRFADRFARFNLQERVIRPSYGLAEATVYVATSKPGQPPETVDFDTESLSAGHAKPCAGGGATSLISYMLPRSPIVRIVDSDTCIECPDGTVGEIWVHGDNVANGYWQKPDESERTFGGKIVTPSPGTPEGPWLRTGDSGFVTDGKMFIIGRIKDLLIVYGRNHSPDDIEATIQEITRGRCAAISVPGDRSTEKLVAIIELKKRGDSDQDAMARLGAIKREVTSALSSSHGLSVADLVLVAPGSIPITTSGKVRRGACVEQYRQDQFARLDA", "assay": "Fluorescence polarization aasay to screen for inhibitors that compete for the binding of FadD28 to a bisubstrate Measured in Biochemical System Using Plate Reader - 2147-01_Inhibitor_Dose_CherryPick_Activity.", "format": "functional, Mycobacterium tuberculosis H37Rv"}, "Hexokinase HKDC1": {"target": "T3, Hexokinase HKDC1 (Homo sapiens, UniProt Q2TB90)", "T3 sequence (Q2TB90 whole entry)": "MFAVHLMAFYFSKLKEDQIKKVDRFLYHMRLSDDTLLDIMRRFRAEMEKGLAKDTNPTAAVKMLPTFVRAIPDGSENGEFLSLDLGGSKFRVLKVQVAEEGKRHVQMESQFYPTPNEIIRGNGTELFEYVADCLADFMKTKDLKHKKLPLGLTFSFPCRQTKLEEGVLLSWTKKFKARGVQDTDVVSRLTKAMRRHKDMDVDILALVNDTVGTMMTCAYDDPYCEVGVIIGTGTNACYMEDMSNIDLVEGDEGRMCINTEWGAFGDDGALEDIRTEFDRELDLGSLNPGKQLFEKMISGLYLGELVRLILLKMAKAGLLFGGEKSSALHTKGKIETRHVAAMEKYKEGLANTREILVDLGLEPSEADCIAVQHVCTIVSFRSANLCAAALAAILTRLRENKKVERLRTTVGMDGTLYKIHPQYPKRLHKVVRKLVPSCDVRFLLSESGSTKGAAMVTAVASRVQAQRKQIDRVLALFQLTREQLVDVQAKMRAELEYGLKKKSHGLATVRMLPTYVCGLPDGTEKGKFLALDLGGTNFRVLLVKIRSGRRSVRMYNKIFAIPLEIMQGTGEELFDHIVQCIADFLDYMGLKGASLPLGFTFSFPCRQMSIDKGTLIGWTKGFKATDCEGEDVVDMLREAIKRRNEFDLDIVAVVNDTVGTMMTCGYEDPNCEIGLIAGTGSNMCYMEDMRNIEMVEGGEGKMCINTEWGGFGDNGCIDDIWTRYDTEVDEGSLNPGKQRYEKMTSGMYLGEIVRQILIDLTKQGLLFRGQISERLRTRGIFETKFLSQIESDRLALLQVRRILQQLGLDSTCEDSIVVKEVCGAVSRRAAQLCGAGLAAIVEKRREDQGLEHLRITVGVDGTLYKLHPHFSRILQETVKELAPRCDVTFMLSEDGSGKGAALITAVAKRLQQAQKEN", "assay": "inhibition of HKDC1 glucose phosphorylation – biochemical, W721R variant, dose response (AID 504729)", "format": "functional"}, "SUMO-activating enzyme": {"target": "SUMO-activating enzyme (Homo sapiens, UniProt Q9UBT2)", "sequence (Q9UBE0 whole entry)": "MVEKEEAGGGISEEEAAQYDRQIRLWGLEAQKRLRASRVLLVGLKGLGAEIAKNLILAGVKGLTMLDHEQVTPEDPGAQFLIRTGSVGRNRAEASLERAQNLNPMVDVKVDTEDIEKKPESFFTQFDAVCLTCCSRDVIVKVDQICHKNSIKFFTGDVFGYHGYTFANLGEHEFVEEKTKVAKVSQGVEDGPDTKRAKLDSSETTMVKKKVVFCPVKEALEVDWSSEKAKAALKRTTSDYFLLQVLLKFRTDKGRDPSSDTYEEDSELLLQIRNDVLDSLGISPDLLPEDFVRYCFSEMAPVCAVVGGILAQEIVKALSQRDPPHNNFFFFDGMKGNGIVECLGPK", "sequence (Q9UBT2 whole entry)": "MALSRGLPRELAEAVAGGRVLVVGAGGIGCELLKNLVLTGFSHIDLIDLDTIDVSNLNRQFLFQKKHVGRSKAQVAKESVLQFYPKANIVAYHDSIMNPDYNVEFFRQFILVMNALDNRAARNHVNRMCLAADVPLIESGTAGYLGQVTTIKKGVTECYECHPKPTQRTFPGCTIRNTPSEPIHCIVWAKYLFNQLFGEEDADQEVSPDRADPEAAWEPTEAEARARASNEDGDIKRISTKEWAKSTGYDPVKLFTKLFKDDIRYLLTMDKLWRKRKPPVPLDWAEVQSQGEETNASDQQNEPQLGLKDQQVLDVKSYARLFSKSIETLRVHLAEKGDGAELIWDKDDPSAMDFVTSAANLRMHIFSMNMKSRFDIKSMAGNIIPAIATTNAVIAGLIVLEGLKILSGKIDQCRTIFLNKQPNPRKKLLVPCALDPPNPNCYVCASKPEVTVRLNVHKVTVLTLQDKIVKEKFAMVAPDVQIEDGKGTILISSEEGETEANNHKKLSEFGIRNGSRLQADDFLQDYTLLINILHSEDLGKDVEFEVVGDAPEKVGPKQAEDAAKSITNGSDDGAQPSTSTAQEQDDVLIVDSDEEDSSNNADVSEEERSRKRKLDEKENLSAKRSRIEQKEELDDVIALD", "assay": "blockers of UBC9-mediated SUMO conjugation – biochemical, AlphaScreen, SUMOylation inhibitor project, confirmation (AID 2018)", "format": "functional"}, "[3]": {"target": "Serine/threonine-protein phosphatase PP1-alpha catalytic subunit (Homo sapiens, UniProt P62136)", "sequence (P62136 whole entry)": "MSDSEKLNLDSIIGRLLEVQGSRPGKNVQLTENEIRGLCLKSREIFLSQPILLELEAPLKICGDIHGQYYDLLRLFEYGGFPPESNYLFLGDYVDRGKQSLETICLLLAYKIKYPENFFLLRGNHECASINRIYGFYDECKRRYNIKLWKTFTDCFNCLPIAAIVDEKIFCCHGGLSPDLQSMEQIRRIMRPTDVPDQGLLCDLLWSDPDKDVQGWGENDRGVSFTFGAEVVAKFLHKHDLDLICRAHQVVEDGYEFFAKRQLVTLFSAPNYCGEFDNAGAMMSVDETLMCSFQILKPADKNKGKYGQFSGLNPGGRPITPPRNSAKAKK", "assay": "inhibition of protein phosphatase 1 activity – biochemical, fluorescence, dose response (AID 2394)"}, "[4]": {"target": "Serine/threonine-protein phosphatase (Homo sapiens, UniProt Q9BPW0)", "sequence (Q9BPW0 whole entry)": "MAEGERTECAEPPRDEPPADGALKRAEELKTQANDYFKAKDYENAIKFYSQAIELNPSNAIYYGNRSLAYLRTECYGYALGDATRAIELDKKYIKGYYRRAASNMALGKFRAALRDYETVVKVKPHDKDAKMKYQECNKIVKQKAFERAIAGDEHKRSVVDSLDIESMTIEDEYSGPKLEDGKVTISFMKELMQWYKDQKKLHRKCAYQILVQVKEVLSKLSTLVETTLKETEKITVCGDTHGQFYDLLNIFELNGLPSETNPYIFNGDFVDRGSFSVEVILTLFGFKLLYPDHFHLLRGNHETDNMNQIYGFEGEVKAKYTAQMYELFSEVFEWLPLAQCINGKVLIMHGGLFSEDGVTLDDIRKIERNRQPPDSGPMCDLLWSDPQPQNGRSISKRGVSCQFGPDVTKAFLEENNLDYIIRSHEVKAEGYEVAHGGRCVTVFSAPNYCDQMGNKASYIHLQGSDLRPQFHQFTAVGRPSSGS", "assay": "inhibition of protein phosphatase 5 activity – biochemical, fluorescence, dose response (AID 2395)"}, "[5]": {"target": "T4, Sentrin-specific protease 8 (Homo sapiens, UniProt Q96LD8)", "T4 sequence (Q96LD8 whole entry)": "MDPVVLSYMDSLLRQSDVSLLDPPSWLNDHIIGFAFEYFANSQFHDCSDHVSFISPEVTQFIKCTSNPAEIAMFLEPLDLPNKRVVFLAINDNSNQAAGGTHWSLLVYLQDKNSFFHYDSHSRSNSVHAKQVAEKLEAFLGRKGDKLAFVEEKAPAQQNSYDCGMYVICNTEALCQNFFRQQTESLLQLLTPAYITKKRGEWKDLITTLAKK", "format": "functional"}, "[6]": {"assay": "alpha-synuclein stem-loop luciferase translation blockers – H4 neuroglioma cells, luminescence, confirmation (AID 1988)", "format": "functional, cell-based"}, "INS1": {"system": "INS1", "assay": "INS-1E survival protection against cytokine death – cell-based, luminescence, retest, dose response (AID 449756);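 also: cell death triggered by IL-1 beta plus TNF-alpha plus IFN-gamma mixture; protective hits raise ATP signal compared with cytokine alone wells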", "format": "functional", "conditions": "Rattus norvegicus"}, "[7]": {"system": "Streptococcus sp. 'group A'", "assay": "Streptococcus pyogenes SK(-)GAS viability under kanamycin – luminescence, BacTiterGlo, confirmation, counter-screen for streptokinase expression inhibitor project, dose response (AID 1900)", "format": "functional, organism-based"}, "[8]": {"assay": "luciferase reporter signal suppression in cells – H4 neuroglioma cells, luminescence, dose response (AID 1990)", "format": "functional, cell-based"}},
  "note": "Active and inactive are the calls of the source.",
  "data": [
    {"compound": "O=C1C=C(Nc2ccccc2C(=O)O)c2ccccc2C1=O", "values": [
      {"measurement": "EC50", "setting": "[1]", "result": "133 µM (active)"},
      {"measurement": "IC50", "setting": "Genome polyprotein", "result": "> 100 µM (active)"},
      {"measurement": "AC50", "setting": "[2]", "result": "> 100 µM (inactive)"},
      {"measurement": "IC50", "setting": "Hexokinase HKDC1", "result": "12.4 µM (active)"},
      {"measurement": "IC50", "setting": "SUMO-activating enzyme", "result": "1.9 µM (active)"}
    ]},
    {"compound": "COc1ccc(NC(=S)Nc2ccc3nsnc3c2)cc1", "values": [
      {"measurement": "IC50", "setting": "[3]", "result": "> 67 µM (not active)"},
      {"measurement": "IC50", "setting": "[4]", "result": "> 2.48 µM (active)"},
      {"measurement": "IC50", "setting": "[5]", "result": "2.3 µM (active)"}
    ]},
    {"compound": "CC(C)(C)c1cc[n+](C2=C([N-]S(=O)(=O)c3ccccc3)C(=O)c3ccccc3C2=O)cc1", "values": [
      {"measurement": "EC50", "setting": "[6]", "result": "9.04 µM (active)"},
      {"measurement": "AC50", "setting": "INS1", "result": "14.5 µM (active)"},
      {"measurement": "EC50", "setting": "[7]", "result": "4.89 µM (active)"},
      {"measurement": "EC50", "setting": "[8]", "result": "> 120 µM (not active)"}
    ]}
  ]
}
